Our source for the Ki values is BindingDB's records for doi:10.1021/acs.jmedchem.7b00585 (The Scripps Research Institute, 2017).

pKi: −log10 of the molar value.

For one test, the target named is T1, Estrogen receptor (Homo sapiens, UniProt P03372).
T1 sequence (P03372 whole entry): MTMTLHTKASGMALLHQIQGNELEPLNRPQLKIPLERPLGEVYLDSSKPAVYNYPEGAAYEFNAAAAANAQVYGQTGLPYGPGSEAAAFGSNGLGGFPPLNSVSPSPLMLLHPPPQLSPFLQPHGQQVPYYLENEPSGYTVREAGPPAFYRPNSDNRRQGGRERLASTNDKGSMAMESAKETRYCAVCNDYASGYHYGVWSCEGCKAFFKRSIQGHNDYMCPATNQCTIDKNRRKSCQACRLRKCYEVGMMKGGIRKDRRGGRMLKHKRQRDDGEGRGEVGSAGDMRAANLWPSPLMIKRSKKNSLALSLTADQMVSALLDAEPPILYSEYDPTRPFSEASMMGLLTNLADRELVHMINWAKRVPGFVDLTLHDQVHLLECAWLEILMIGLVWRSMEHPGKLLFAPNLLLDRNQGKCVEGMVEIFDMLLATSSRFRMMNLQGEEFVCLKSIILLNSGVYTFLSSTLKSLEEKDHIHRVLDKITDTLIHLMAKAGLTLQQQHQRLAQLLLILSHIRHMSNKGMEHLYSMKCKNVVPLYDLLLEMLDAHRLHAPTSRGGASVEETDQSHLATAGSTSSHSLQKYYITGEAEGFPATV
Briefly: (§1) Displacement of [3H]estradiol from full-length human ERalpha receptor by scintillation counting.
The molecule `CCCCN(C)C(=O)/C=C/c1ccc(C(=C2C3CC4CC(C3)CC2C4)c2ccc(O)cc2)cc1` showed a pKi of 9.15.

Take `O=C(/C=C/c1ccc(C(=C2C3CC4CC(C3)CC2C4)c2ccc(O)cc2)cc1)OCCCO`: the pKi is 9.15. On the same count and under the same terms, the value for `COC(=O)/C=C/c1ccc(C(=C2C3CC4CC(C3)CC2C4)c2ccc(O)cc2)cc1` was 9.37. The molecule `O=C(/C=C/c1ccc(C(=C2C3CC4CC(C3)CC2C4)c2ccc(O)cc2)cc1)OCCO` gave a pKi of 9.43.

Consider `O=C(/C=C/c1ccc(C(=C2C3CC4CC(C3)CC2C4)c2ccc(O)cc2)cc1)NCCCO`, for which the pKi is 9.37. `NCCCNC(=O)/C=C/c1ccc(C(=C2C3CC4CC(C3)CC2C4)c2ccc(O)cc2)cc1` had a pKi of 9.43.

A further test deals with T1, Estrogen receptor. Briefly: ChEBML_1664056.
Text: as §1
Turning to `CCCCNC(=O)/C=C/c1ccc(C(=C2C3CC4CC(C3)CC2C4)c2ccc(O)cc2)cc1`, the pKi is 9.15.

The pKi is the Ki on a negative log10 scale, so that one unit is a factor of ten. Low values mean a large Ki, high ones a small Ki.
